Measurements reported in PMC11859031, “Assessment of the In Vitro Biological Activities of Schiff Base-Synthesized Copper Oxide Nanoparticles as an Anti-Diabetic, Anti-Alzheimer, and Anti-Cancer Agent” (Pharmaceutics, 2025).

Key:
[1] = Total antioxidant capacity (TAC), phosphomolybdenum method; settings: samples at 100 µg/mL; mean ± SE, n = 3
Protocol: 1. Preparation of SB-CuO-NPs
The copper oxide nanoparticles (CuO-NPs) were biosynthesized using a concentrated anhydrous copper sulfate solution (1 mM) as a metal precursor based […]
dissolved in 100 ml of deionized water to form a 0.1 M concentration. The Schiff base (SB) was mixed with the metal solution in a ratio of 4:1. The SB-CuO-NPs was monitored by a color change. They were dried at 80 °C after centrifuging the colloidal solution at 4000 rpm for 15 min.
2. Characterization of the SB-CuO-NPs
The spectra of the SB-CuO-NPs were characterized using a Shimadzu UV-VIS recording spectrophotometer UV-240 after diluting the samples (10-fold) with deionized water at λ 200 - 800 nm. Their surface zeta potentials were measured using the laser zeta meter (Malvern Zetasizer 2000, Malvern, Worcestershire, UK) following […]
Moreover, their average hydrodynamic sizes were determined using the laser diffraction method with multiple scattering techniques employing dynamic light scattering (DLS) (Malvern Zetasizer Nano ZS, Malvern Instruments Ltd., Malvern, United Kingdom) (Murdock et al., 2008). […]
All biological activities were assessed in the prepared samples at equal concentrations (100 µg/mL). […]
After cooling to room temperature, the absorbance was measured at 695 nm against the blank. […] The antioxidant capacity was expressed as mg gallic acid equivalent per gram weight. […]

[2] = target: T1, 5-LOX enzyme (human recombinant) (Homo sapiens, UniProt P09917); experiment: 5-Lipoxygenase inhibition assay; format: biochemical; settings: mean ± SE, n = 3
T1 construct: purchased Sigma-Aldrich 437996
T1 sequence (P09917 1-674): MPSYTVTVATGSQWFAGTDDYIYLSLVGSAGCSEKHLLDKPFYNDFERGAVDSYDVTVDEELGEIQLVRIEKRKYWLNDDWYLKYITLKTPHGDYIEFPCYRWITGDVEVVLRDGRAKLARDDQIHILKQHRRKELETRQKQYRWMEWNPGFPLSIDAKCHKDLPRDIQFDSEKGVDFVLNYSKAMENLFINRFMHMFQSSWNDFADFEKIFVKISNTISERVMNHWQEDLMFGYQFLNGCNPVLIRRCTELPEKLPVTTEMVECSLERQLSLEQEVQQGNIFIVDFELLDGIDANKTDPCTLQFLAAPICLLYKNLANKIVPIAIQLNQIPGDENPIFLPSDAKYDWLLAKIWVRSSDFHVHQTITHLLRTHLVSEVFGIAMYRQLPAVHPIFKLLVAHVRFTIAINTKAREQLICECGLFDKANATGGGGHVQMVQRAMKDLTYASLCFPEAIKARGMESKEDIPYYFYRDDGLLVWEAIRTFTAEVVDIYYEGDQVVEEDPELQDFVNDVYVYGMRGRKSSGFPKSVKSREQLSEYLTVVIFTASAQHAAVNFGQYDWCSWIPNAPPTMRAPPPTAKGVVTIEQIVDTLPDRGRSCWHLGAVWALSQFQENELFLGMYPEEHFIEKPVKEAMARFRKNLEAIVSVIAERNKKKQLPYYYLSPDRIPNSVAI

caspase-3 in A549 cells = experiment: Caspase-3 ELISA in treated A549 cells; format: cell-based, human; settings: A549 cells treated at the IC50 value, mean ± SE, n = 3
Protocol: Following the treatment of HepG-2, Caco-2, A549, and BJ-1 cells with the SB-CuO-NPs at their respective IC50 values, as illustrated in Figure 9 and detailed in Table 5, an assessment of the activities of the caspase-3 and Bcl-2 enzymes was conducted in the treated cells. […] This mechanism ultimately triggers apoptosis. Additionally, the increased activity of caspase-3 results in a decrease in the expression of cyclin D1 and CDK-2 mRNA, thereby promoting the arrest of the G1 phase of the cell cycle. Othman et al. further noted that the biosynthesized M-NPs facilitate apoptosis by inhibiting the expression of the PI3K/AKT and Ras/Raf/ERK protein signaling pathways.
Invitrogen Corporation, following the manufacturer's instructions.

Cc1nn(-c2ccccc2)c(Cl)c1C=NN=C1C(=O)Nc2ccccc21 [SB]
Antioxidant activity TAC [1]: 65.41 ± 0.19 mg gallic acid/g
inhibition at 100 µg/mL ([2]; at 100 µg/mL, read-out: 5-LOX Inhib. (%)): 26.71 ± 0.18%
IC50 [2]: 36.6 µM
Caspase-3 (caspase-3 in A549 cells): 134.94 ± 0.18 pg/mL
